Measured values from patent publication US20250236589A1, “THERAPEUTIC PHENETHYLAMINE COMPOSITIONS AND METHODS OF USE” (Cybin IRL Limited, priority 2022, published 2025).
Like-named read-outs stand apart in the source and are kept apart here. Marks after values point to notes of the source that are not given here.

What was measured:
Muscarinic M3 (h) = Muscarinic M3 (h) (Homo sapiens (Human), UniProt P20309); test: Off-target screen, radioligand displacement at 10 μM; type: binding; settings: antagonist radioligand
Muscarinic M3 (h), sequence (P20309 whole entry, looked up): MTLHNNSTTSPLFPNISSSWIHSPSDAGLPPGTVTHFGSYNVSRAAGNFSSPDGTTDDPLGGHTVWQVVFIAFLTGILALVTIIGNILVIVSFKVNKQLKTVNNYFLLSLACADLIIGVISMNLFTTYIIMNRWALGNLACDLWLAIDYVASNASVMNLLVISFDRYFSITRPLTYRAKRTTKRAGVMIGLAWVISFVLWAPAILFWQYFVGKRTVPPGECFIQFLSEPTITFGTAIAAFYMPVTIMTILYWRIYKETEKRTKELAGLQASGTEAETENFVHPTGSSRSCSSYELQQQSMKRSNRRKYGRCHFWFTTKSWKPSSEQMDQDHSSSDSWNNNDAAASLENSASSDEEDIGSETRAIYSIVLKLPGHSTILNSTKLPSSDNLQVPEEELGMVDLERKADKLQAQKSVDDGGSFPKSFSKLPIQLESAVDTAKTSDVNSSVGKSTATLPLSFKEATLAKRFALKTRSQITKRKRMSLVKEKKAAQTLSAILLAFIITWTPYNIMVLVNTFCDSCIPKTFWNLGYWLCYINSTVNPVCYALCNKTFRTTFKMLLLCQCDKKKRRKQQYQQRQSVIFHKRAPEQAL

Dopamine D1 (h) = Dopamine D1 (h) (Homo sapiens (Human), UniProt P21728); test: as above; type: binding
Dopamine D1 (h), sequence (P21728 whole entry, looked up): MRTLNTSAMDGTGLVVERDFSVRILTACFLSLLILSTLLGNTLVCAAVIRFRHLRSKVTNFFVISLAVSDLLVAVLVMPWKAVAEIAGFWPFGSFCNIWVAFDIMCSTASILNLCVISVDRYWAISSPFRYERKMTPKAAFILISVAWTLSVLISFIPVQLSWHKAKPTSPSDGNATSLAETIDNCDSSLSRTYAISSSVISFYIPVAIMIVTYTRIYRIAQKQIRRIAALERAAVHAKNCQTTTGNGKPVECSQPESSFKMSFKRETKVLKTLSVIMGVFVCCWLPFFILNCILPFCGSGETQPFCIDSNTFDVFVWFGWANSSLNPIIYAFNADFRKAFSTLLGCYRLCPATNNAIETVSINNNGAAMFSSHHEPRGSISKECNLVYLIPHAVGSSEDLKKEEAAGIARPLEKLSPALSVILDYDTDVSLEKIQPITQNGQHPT

Vasopressin V1a (h) = Vasopressin V1a (h) (Homo sapiens (Human), UniProt P37288); test: as above; settings: read-out: binding at 10 μM
Vasopressin V1a (h), sequence (P37288 whole entry, looked up): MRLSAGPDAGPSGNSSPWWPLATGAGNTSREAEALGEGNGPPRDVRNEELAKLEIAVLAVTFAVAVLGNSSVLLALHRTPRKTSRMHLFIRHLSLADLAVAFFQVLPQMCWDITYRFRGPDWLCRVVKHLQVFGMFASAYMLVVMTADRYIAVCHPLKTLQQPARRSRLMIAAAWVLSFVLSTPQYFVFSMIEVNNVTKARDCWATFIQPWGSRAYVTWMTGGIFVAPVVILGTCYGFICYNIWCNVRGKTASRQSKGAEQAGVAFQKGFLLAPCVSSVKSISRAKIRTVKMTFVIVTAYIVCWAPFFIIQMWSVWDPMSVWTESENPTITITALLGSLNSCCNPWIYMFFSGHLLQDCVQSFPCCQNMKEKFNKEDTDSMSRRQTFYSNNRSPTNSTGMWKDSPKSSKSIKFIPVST

Tachykinin NK3 (h) = Tachykinin NK3 (h) (Homo sapiens (Human), UniProt P29371); test: as above; settings: read-out: binding at 10 μM
Tachykinin NK3 (h), sequence (P29371 whole entry, looked up): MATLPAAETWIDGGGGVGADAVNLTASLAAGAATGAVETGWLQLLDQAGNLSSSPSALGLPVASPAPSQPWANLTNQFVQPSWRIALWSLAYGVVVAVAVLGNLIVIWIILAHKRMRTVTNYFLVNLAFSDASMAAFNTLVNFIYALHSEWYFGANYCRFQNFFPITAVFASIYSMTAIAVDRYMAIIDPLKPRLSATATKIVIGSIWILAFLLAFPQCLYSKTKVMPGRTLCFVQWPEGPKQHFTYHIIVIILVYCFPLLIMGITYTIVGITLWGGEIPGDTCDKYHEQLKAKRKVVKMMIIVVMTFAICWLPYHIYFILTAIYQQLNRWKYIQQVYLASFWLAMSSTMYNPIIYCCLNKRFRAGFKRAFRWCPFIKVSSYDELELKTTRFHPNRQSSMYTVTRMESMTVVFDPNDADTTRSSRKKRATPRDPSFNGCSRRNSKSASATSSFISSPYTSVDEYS

Muscarinic M5 (h) = Muscarinic M5 (h) (Homo sapiens (Human), UniProt P08912); test: as above; type: binding; settings: antagonist radioligand
Chemokine CCR1 (h) = Chemokine CCR1 (h) (Homo sapiens (Human), UniProt P32246); test: as above; settings: read-out: binding at 10 μM
Chemokine CCR1 (h), sequence (P32246 whole entry, looked up): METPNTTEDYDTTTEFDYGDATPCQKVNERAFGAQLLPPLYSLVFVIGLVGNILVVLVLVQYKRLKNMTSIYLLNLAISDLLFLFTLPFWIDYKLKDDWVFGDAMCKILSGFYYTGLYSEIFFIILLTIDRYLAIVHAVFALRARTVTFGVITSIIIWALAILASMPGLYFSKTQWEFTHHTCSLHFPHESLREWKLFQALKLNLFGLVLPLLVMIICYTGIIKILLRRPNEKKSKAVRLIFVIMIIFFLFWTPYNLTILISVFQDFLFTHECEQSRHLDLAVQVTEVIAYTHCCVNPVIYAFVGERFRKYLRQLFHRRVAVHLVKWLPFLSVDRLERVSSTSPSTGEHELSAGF

[1] = test system: GABA (non-selective) (rat cortex); test: as above; type: binding
Muscarinic M2 (h) = Muscarinic M2 (h) (Homo sapiens (Human), UniProt P08172); test: as above; settings: read-out: binding at 10 μM
Muscarinic M2 (h), sequence (P08172 whole entry, looked up): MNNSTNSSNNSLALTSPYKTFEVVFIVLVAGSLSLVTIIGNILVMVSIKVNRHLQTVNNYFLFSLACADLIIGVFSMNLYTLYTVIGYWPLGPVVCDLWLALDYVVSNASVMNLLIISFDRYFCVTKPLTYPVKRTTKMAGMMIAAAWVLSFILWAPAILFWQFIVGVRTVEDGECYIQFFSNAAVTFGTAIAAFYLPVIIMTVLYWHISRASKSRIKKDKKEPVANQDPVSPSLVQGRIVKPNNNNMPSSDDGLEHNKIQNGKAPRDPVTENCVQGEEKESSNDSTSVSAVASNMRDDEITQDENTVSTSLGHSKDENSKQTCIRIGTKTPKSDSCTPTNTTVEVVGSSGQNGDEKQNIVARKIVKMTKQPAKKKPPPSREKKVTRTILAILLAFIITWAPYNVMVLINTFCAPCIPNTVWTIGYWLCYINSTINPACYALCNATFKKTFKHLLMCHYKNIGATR

δ-opioid (h) = δ-opioid (h) (Homo sapiens (Human), UniProt P41143); test: as above; settings: read-out: binding at 10 μM
δ-opioid (h), sequence (P41143 whole entry, looked up): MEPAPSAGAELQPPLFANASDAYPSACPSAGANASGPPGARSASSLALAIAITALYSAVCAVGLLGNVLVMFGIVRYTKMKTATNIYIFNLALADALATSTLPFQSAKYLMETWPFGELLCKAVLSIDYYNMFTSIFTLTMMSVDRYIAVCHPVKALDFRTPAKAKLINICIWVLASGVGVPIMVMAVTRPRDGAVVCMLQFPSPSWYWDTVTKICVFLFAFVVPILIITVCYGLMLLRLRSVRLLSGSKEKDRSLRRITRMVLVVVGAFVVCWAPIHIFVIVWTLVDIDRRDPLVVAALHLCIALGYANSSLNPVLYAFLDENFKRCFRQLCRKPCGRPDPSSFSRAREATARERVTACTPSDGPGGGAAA

5-HT1B (h) = 5-HT1B (h) (Homo sapiens (Human), UniProt P28222); test: as above; type: binding; settings: antagonist radioligand
5-HT1B (h), sequence (P28222 whole entry, looked up): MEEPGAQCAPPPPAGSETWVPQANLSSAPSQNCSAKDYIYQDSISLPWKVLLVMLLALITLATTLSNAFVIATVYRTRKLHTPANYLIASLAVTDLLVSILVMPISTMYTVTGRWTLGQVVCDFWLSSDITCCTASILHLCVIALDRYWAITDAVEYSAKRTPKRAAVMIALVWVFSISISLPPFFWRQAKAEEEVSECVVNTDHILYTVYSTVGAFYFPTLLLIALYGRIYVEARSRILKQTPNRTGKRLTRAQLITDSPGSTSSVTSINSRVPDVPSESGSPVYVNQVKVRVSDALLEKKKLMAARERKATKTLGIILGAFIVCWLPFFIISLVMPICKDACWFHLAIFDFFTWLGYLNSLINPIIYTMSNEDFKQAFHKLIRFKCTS

Orphanin ORL1 (h) = Orphanin ORL1 (h) (Homo sapiens (Human), UniProt P41146); test: as above; settings: read-out: binding at 10 μM
5-HT3 (h) = 5-HT3 (h) (Homo sapiens (Human), UniProt P46098); test: as above; settings: antagonist, read-out: binding at 10 μM
5-HT3 (h), sequence (P46098 whole entry, looked up): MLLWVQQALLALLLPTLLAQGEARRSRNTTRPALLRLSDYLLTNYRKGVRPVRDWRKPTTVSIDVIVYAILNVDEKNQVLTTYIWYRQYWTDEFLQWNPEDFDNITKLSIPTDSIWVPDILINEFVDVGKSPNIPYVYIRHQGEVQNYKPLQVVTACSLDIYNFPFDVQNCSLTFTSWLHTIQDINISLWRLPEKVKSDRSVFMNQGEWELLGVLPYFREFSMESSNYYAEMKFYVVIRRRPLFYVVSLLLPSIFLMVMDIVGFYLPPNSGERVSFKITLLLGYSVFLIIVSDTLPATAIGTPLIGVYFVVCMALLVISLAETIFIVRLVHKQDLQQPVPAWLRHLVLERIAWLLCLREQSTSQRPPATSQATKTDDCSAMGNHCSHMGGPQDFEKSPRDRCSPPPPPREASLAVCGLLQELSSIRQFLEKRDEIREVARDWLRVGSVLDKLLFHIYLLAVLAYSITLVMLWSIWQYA

B2 (h) = B2 (h) (Homo sapiens (Human), UniProt P30411); test: as above; settings: read-out: binding at 10 μM
B2 (h), sequence (P30411 whole entry, looked up): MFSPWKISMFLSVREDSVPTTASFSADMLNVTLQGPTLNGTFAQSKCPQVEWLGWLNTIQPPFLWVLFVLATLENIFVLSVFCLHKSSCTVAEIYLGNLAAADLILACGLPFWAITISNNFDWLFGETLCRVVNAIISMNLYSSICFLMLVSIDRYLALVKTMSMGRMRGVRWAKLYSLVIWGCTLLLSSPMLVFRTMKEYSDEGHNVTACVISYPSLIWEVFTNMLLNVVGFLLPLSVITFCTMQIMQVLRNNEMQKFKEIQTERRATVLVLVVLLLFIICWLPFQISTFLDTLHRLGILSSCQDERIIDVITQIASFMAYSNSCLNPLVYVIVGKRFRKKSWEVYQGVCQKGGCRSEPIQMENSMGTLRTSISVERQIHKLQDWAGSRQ

Histamine H2 (h) = Histamine H2 (h) (Homo sapiens (Human), UniProt P25021); test: as above; settings: read-out: binding at 10 μM
Histamine H2 (h), sequence (P25021 whole entry, looked up): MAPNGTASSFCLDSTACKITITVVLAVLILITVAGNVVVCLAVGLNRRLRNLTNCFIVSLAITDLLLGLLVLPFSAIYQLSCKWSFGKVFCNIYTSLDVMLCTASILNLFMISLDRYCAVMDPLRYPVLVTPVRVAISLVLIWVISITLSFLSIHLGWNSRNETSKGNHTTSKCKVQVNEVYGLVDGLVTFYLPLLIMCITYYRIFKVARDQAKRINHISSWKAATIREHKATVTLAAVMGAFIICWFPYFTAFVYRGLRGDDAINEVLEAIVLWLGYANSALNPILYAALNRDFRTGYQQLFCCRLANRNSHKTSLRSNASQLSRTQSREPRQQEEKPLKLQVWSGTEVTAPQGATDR

[2] = In vitro liver microsome stability (DLM); type: in vitro ADME; settings: dog, dog liver microsomes, 0.5 mg/mL microsomes, NADPH, read-out: DLM, t1/2
Description: In vitro stability was determined in Human (HLM), Rat (RLM), Mouse (MsLM), and dog (DLM) Liver Microsomes. All liver microsomes were purchased from a commercial supplier (e.g. XenoTech). The reaction mixture, minus NADPH, was prepared as described below. The test compound was added into the reaction mixture at a final concentration of 1 μM or co-dosed with their deuterated analog(s) at 1 μM each. The control compound, testosterone, was run simultaneously with the test compound in a separate reaction. The reaction mixture (without cofactor) was equilibrated in a shaking water bath at 37° C. for 5 minutes. The reaction was initiated by the addition of the cofactor, and the mixture was incubated in a shaking water bath at 37° C. Aliquots (150 μL) were withdrawn at 0, 5, 10, 20, 30, 60, and 120 minutes. Test compound and testosterone samples were immediately combined with 150 μL of ice-cold acetonitrile (ACN) containing 0.1% formic acid and internal standard to terminate the reaction. The samples were then mixed and centrifuged to precipitate proteins. All samples were assayed by LC-MS/MS using electrospray ionization. […] Half-lives were calculated using GraphPad software, fitting to a single-phase exponential decay equation.

mice = test: Head-twitch response (HTR) screening in mice; type: in vivo, mouse
Description: Protocols were followed according to Canal C E, Morgan D. Head-twitch response in rodents induced by the hallucinogen 2,5-dimethoxy-4-iodoamphetamine: a comprehensive history, a re-evaluation of mechanisms, and its utility as a model. […] Mice were housed in standard laboratory cages with ad libitum access to food and water and were acclimated to the vivarium for at least one week prior to testing in a procedure room. In a typical experiment, mice were injected 3 mg/kg of test article subcutaneously. Mice were placed immediately thereafter in a clear, polycarbonate box (46×20×20 cm), and HTRs were counted at various time points after administration using hand-held tally counters. In a separate experiment, plasma and brain samples were collected at 15 and 160 minutes after administration of test compounds to measure plasma and brain concentrations. Quantification was performed using LC-MS/MS method (LLOQ, 9 nM).

5-HT2A receptor = 5-HT2A receptor (Homo sapiens (Human), UniProt P28223); test: 5-HT2A radioligand competition binding ([3H]LSD or [3H]ketanserin)
[3] = test system: bdnf, homer1, Egr2, cFos mRNA (frontal cortex); test: Brain markers of neuroplasticity, gene expression in frontal cortex; type: in vivo, mouse
Description: To evaluate the effects of I-1 on brain markers of neuroplasticity, male C57BL/6J mice were dosed as described in Table 10.
On Day 4, the animals were euthanized 2 hours post-dose. The left frontal cortex was dissected and stored in RNAlater.
Data were log transformed and analyzed by one-way analysis of variance. Each treatment was compared to vehicle by multiple comparisons. […] Moreover, increased homer1 expression, which is associated with the formation of postsynaptic scaffolds that cluster and colocalize NMDAR and mGluR was observed (FIG. 57C); and increased Egr2 expression, a […] that has been proposed to be a marker for psychedelic activation of 5-HT2A receptors (Gonzalez-Maeso et al., Transcriptome fingerprints distinguish hallucinogenic and nonhallucinogenic 5-hydroxytryptamine 2A receptor agonist effects in mouse somatosensory cortex. J Neurosci. 2003; 23(26), 8836-43) was observed (FIG. 57D). Upregulation of bdnf, a neurotrophin that regulates the survival and growth of neurons and influences synaptic efficiency and plasticity, was also observed (FIG. 57A).

[4] = 2 h after fourth dose of 0.3 mg/kg s.c. (group C) vs vehicle
[5] = 2 h after single 3 mg/kg s.c. (group B) vs vehicle

Question: With `COc1cc(CC(C)N)c(OC)cc1I` (racemic) [DOI, (±)-2,5-dimethoxy-4-iodoamphetamine, reference compound] as the molecule, how does the inhibition at 10 µM (Muscarinic M3 (h)) read?
Answer: 60.4%

Question: What about the inhibition at 10 µM (Dopamine D1 (h); read-out: binding at 10 μM) of the same molecule?
Answer: < 50%

Question: And the inhibition at 10 µM (Vasopressin V1a (h))?
Answer: < 50%

Question: And the inhibition at 10 µM (Tachykinin NK3 (h))?
Answer: < 50%

Question: And the inhibition at 10 µM (Muscarinic M5 (h))?
Answer: 62.6%

Question: And the inhibition at 10 µM (Chemokine CCR1 (h))?
Answer: < 50%

Question: And the “binding at 10 μM” value [1]?
Answer: NB (inhibited less than 50% of radioligand bound to them, and therefore it can be concluded they do not bind (“no binding,” NB))

Question: And the inhibition at 10 µM (Muscarinic M2 (h))?
Answer: < 50%

Question: And the inhibition at 10 µM (δ-opioid (h))?
Answer: < 50%

Question: And the inhibition at 10 µM (5-HT1B (h))?
Answer: 52.7%

Question: What about the inhibition at 10 µM (Orphanin ORL1 (h)) of the same molecule?
Answer: < 50%

Question: What about the inhibition at 10 µM (5-HT3 (h)) of the same molecule?
Answer: < 50%

Question: What about the inhibition at 10 µM (B2 (h)) of the same molecule?
Answer: < 50%

Question: What about the inhibition at 10 µM (Histamine H2 (h)) of the same molecule?
Answer: < 50%

Question: With `COc1cc(SC(F)(F)F)c(OC)cc1CCN` [Compound I-1, 2-(2,5-dimethoxy-4-((trifluoromethyl)thio)phenyl)ethan-1-amine] as the molecule, how does the half-life at 1 μM [2] read?
Answer: > 2 h

Question: What about the inhibition at 10 µM (Muscarinic M3 (h)) of the same molecule?
Answer: 79%

Question: What about the inhibition at 10 µM (Dopamine D1 (h); antagonist radioligand, read-out: inhibition at 10 μM) of the same molecule?
Answer: 57%

Question: What about the inhibition at 10 µM (Vasopressin V1a (h)) of the same molecule?
Answer: < 50%

Question: And the inhibition at 10 µM (Tachykinin NK3 (h))?
Answer: < 50%

Question: What about the inhibition at 10 µM (Muscarinic M5 (h)) of the same molecule?
Answer: > 80%

Question: And the “HTR 15-25 min” value (mice; calculated using 0-5 min)?
Answer: 27.4 #

Question: And the “HTR 160-170 min” value (mice; calculated using 3 min time bin)?
Answer: 30.4 ###

Question: And the inhibition at 10 µM (Chemokine CCR1 (h))?
Answer: < 50%

Question: And the “binding at 10 μM” value [1]?
Answer: NB (inhibited less than 50% of radioligand bound to them, and therefore it can be concluded they do not bind (“no binding,” NB))

Question: What about the Ki (5-HT2A receptor) of the same molecule?
Answer: 54 nM

Question: And the “affinity at 5-HT2A receptors (in words)” value (5-HT2A receptor)?
Answer: superior affinity

Question: And the Ki (5-HT2A receptor; read-out: 5-HT2A, Ki, [3H]ketanserin, high-affinity active state)?
Answer: 2.5 nM

Question: And the inhibition at 10 µM (Muscarinic M2 (h))?
Answer: < 50%

Question: And the inhibition at 10 µM (δ-opioid (h))?
Answer: < 50%

Question: And the “Egr2 mRNA expression” value [3, 4]?
Answer: Increased expression

Question: And the “homer1 mRNA expression” value [3, 4]?
Answer: Increased expression

Question: What about the “Egr2 (krox20) mRNA expression” value [3, 5] of the same molecule?
Answer: Increased expression

Question: And the “bdnf mRNA expression” value [3, 5]?
Answer: Increased expression

Question: And the “cFos mRNA expression” value [3, 5]?
Answer: Increased expression

Question: What about the “homer1 mRNA expression” value [3, 5] of the same molecule?
Answer: Increased expression

Question: What about the inhibition at 10 µM (5-HT1B (h)) of the same molecule?
Answer: > 80%

Question: And the inhibition at 10 µM (Orphanin ORL1 (h))?
Answer: < 50%

Question: What about the inhibition at 10 µM (5-HT3 (h)) of the same molecule?
Answer: < 50%

Question: And the inhibition at 10 µM (B2 (h))?
Answer: < 50%

Question: What about the inhibition at 10 µM (Histamine H2 (h)) of the same molecule?
Answer: < 50%
